## C=CC(=O)Nc1cc(F)c(Br)c(F)c1
In acetonitrile, 284.65 K
  solubility (mole fraction): 0.006
In acetonitrile, 291.45 K
  solubility (mole fraction): 0.0079
In acetonitrile, 294.75 K
  solubility (mole fraction): 0.009
In acetonitrile, 298.25 K
  solubility (mole fraction): 0.0104
In acetonitrile, 301.85 K
  solubility (mole fraction): 0.0121
In acetonitrile, 305.35 K
  solubility (mole fraction): 0.0139
In acetonitrile, 308.45 K
  solubility (mole fraction): 0.0158
In acetonitrile, 312.75 K
  solubility (mole fraction): 0.0186
In acetonitrile, 316.65 K
  solubility (mole fraction): 0.0217
In acetonitrile, 320.05 K
  solubility (mole fraction): 0.0248
In acetonitrile, 323.85 K
  solubility (mole fraction): 0.0288
In acetonitrile, 327.65 K
  solubility (mole fraction): 0.0332
In acetonitrile, 331.75 K
  solubility (mole fraction): 0.0386
In acetonitrile, 334.15 K
  solubility (mole fraction): 0.0423
In acetonitrile, 337.75 K
  solubility (mole fraction): 0.0482
In acetonitrile, 340.45 K
  solubility (mole fraction): 0.0533
In acetonitrile, 343.55 K
  solubility (mole fraction): 0.0596
In acetonitrile, 346.35 K
  solubility (mole fraction): 0.0662
In acetonitrile, 348.95 K
  solubility (mole fraction): 0.0725
In benzene, 296.35 K
  solubility (mole fraction): 0.0007
In benzene, 302.95 K
  solubility (mole fraction): 0.0011
In benzene, 308.75 K
  solubility (mole fraction): 0.0014
In benzene, 310.75 K
  solubility (mole fraction): 0.0015
In benzene, 317.65 K
  solubility (mole fraction): 0.0022
In benzene, 324.25 K
  solubility (mole fraction): 0.003
In benzene, 332.05 K
  solubility (mole fraction): 0.0044
In benzene, 335.95 K
  solubility (mole fraction): 0.0054
In benzene, 340.85 K
  solubility (mole fraction): 0.0067
In benzene, 347.05 K
  solubility (mole fraction): 0.0094
In ethanol, 295.25 K
  solubility (mole fraction): 0.0251
In ethanol, 297.65 K
  solubility (mole fraction): 0.0264
In ethanol, 301.55 K
  solubility (mole fraction): 0.0292
In ethanol, 309.25 K
  solubility (mole fraction): 0.0351
In ethanol, 312.95 K
  solubility (mole fraction): 0.0384
In ethanol, 318.55 K
  solubility (mole fraction): 0.044
In ethanol, 326.45 K
  solubility (mole fraction): 0.0534
In ethanol, 331.35 K
  solubility (mole fraction): 0.0604
In ethanol, 334.85 K
  solubility (mole fraction): 0.0659
In ethanol, 339.55 K
  solubility (mole fraction): 0.074
In ethanol, 344.45 K
  solubility (mole fraction): 0.0838
In ethanol, 347.55 K
  solubility (mole fraction): 0.0905
In methanol, 294.25 K
  solubility (mole fraction): 0.0142
In methanol, 298.65 K
  solubility (mole fraction): 0.0163
In methanol, 303.16 K
  solubility (mole fraction): 0.0189
In methanol, 308.45 K
  solubility (mole fraction): 0.0221
In methanol, 312.35 K
  solubility (mole fraction): 0.0249
In methanol, 318.15 K
  solubility (mole fraction): 0.0298
In methanol, 321.05 K
  solubility (mole fraction): 0.0325
In methanol, 324.65 K
  solubility (mole fraction): 0.036
In methanol, 327.45 K
  solubility (mole fraction): 0.0391
In methanol, 328.95 K
  solubility (mole fraction): 0.041
In pyridine, 288.95 K
  solubility (mole fraction): 0.139
In pyridine, 292.45 K
  solubility (mole fraction): 0.145
In pyridine, 298.95 K
  solubility (mole fraction): 0.157
In pyridine, 303.85 K
  solubility (mole fraction): 0.166
In pyridine, 310.25 K
  solubility (mole fraction): 0.178
In pyridine, 317.05 K
  solubility (mole fraction): 0.193
In pyridine, 322.55 K
  solubility (mole fraction): 0.205
In pyridine, 328.45 K
  solubility (mole fraction): 0.219
In pyridine, 333.15 K
  solubility (mole fraction): 0.23
In pyridine, 338.25 K
  solubility (mole fraction): 0.243
In pyridine, 344.95 K
  solubility (mole fraction): 0.262
In pyridine, 348.85 K
  solubility (mole fraction): 0.273
In toluene, 286.65 K
  solubility (mole fraction): 0.0006
In toluene, 291.95 K
  solubility (mole fraction): 0.0008
In toluene, 292.05 K
  solubility (mole fraction): 0.0008
In toluene, 295.95 K
  solubility (mole fraction): 0.0009
In toluene, 301.75 K
  solubility (mole fraction): 0.0011
In toluene, 301.85 K
  solubility (mole fraction): 0.0012
In toluene, 307.95 K
  solubility (mole fraction): 0.0015
In toluene, 312.05 K
  solubility (mole fraction): 0.0019
In toluene, 316.05 K
  solubility (mole fraction): 0.0022
In toluene, 319.25 K
  solubility (mole fraction): 0.0026
In toluene, 323.75 K
  solubility (mole fraction): 0.003
In toluene, 327.95 K
  solubility (mole fraction): 0.0035
In toluene, 331.15 K
  solubility (mole fraction): 0.0043
In toluene, 334.65 K
  solubility (mole fraction): 0.0051
In toluene, 337.65 K
  solubility (mole fraction): 0.0059
In toluene, 342.35 K
  solubility (mole fraction): 0.0069

Reference: BigSolDB 2.1
